The test system of data set [1] is HepG2 hepatocellular carcinoma cells. Briefly: MTT cell viability assay, HepG2. It counts as cell-based. The following applies: for effect of inhibitor alone on cancer viability: CPZ 2.5 to 10 μg/ml, nystatin 5 to 30 μM. The source says: (§1) Based on preliminary research, we hypothesized that under duress, cells and cell lines might generate exosomes that are deleterious specifically to malignant cells and tissue. We also speculated that exosomes could be loaded with specific microRNA (mi-RNA) that might further enhance anti-cancer activity and specificity. We initiated studies with human cerebral endothelial cells (HCEC) because […], endothelial cells would be able to release exosomes directly into the systemic circulation where they could travel to cancer sites. The initial mechanism of cellular stress we chose for the HCEC cells was oxygen-glucose deprivation (OGD). HCEC cells were exposed to OGD deprivation for a period of four hours and then exosomes were harvested and purified (See methods). HCEC cells exposed to OGD deprivation for longer than four hours started to lose viability. The “4 h-OGD-exosomes” were then tested for their effect on the viability of hepatocellular cancer cell lines, HepG2 and Hep3B, and on the benign liver cell line, THLE-2. To assay the cell viability of target cells, we used the MTT (3-(4,5-Dimethylthiazol-2-yl)-2,5-diphenyltetrazolium bromide) assay (See Methods). All cancer lines used in all of the studies are outlined in Table 1.
(§2) Cells were cultured in medium with indicated treatment.
Background: Tetrazolium assays rely on reduction of a dye to a coloured formazan, in cell work by metabolically active cells.

In data set [2] the test system is Hep3B hepatocellular carcinoma cells. The experiment in a line: MTT cell viability assay, Hep3B. It counts as cell-based. To be noted: for effect of inhibitor alone on cancer viability: CPZ 2.5 to 10 μg/ml, nystatin 5 to 30 μM; for effect of inhibitor pretreatment on the anti-cancer effect of Hypo-Exo: pretreatment with endocytosis inhibitor, then Hypo-Exo.
Source text: as §1, §2

The test system of data set [3] is primary liver cancer cells taken from patients. The experiment in a line: Viability of primary liver cancer cells from HCC patients.
Method: Exosomes were tested against primary liver cancer cells taken from the patient's tumor as well as non-malignant, normal liver cells taken from a distant site in the explant liver away from the tumor. OGD-Exo were tested along with HCEC-m214-Exo and also with the chemotherapeutic agents, oxaliplatin and Sorafenib. […] OGD-Exo were used at a dose of 10^8 p/ml to avoid excessive killing with OGD-Exo alone. Exosomes were tested against patient 11 (Pt.011) and patient 12 (Pt.012).
3-(4,5-dimethylthiazol-2-yl)-2,5 diplenyltetrazolium bromide (MTT) assay: To measure cell viability, cells were seeded in 96-well plates at a density of 800 cells per well. Cells were cultured in medium with indicated treatment. After 5 days of treatment, medium was removed and MTT was added to each well with an additional 4 hr incubation to allow mitochondrial dehydrogenase to convert MTT into insoluble formazan crystals. The absorption of solubilized formazan was measured at a wavelength of 490 nm by an ELISA plate reader (EL340 microplate reader; Bio-Tek Instruments, Winooske, VT).
Data set [4] deals with benign THLE-2 liver cell line. The experiment in a line: MTT cell viability assay, THLE-2. It counts as cell-based. The following applies: benign liver cells.
Source text: as §1, §2

Data set [5] relates to hepatitis B-related HCC patients. To be noted: treatment group, advanced stage patients; cited from earlier work.
For data set [6], the system named is HCC patients. The following applies: study of 600 patients; cited from earlier work.

Entries after “also recorded” stand apart in the source; their conditions may differ.

For `CN(C)CCCN1c2ccccc2Sc2ccc(Cl)cc21` [CPZ, chlorpromazine], the “effect of inhibitor alone on cancer viability” value in data set [1] and in data set [2] was “did not affect cancer viability” each time. The “effect of inhibitor pretreatment on the anti-cancer effect of Hypo-Exo” value in data set [1] (pretreatment with endocytosis inhibitor, then Hypo-Exo) is recorded as “significantly attenuated the anti-cancer effect of Hypo-Exo; also recorded: blunt the anti-tumor effect of Hypo-Exo”; in data set [2], “significantly attenuated the anti-cancer effect of Hypo-Exo”.

`CNC(=O)c1cc(Oc2ccc(NC(=O)Nc3ccc(Cl)c(C(F)(F)F)c3)cc2)ccn1` [Sorafenib] had a viability at 1.2 µM in data set [1] (Homo sapiens, HepG2, Hypo-Exo 10^8 p/ml, Sorafenib 1.2 μM) of 67.4%. Further, the cytotoxicity at 1.2 µM in data set [3] (Homo sapiens, read-out: decrease in viability of primary liver cancer cells) is 42 to 44%. Also, the “effect on cell viability” value in data set [4] was “negligible impact”. Also, the median overall survival in data set [5] is recorded as 6.5 months. Moreover, the viability at 0.8 µM in data set [2] (Homo sapiens, Hep3B, Hypo-Exo 10^8 p/ml, Sorafenib 0.8 µM) stood at 80.5%. In data set [6], the increase in survival result was “three”.

For the compound `C[C@@H]1[C@H](O)[C@@H](C)/C=C/C=C/CC/C=C/C=C/C=C/C=C/C(O[C@H]2O[C@H](C)[C@@H](O)[C@H](N)[C@@H]2O)CC2O[C@](O)(CC(O)C(O)CCC(O)CC(O)CC(O)CC(=O)O[C@H]1C)CC(O)C2C(=O)O` (some centres unmarked) [nystatin], the “effect of inhibitor alone on cancer viability” value in data set [1] and in data set [2] was “did not affect cancer viability” throughout. Also, the “effect of inhibitor pretreatment on the anti-cancer effect of Hypo-Exo” value in data set [2] is on record as “significantly diminished the anti-cancer effect of Hypo-Exo; also recorded: blunts the effect of Hypo-Exo”.

Turning to `O=C1[O][Pt]2([NH][C@@H]3CCCC[C@H]3[NH]2)[O]C1=O` [oxaliplatin], in data set [3] (OGD-Exo 10^8 p/ml, oxaliplatin 0.06125 µM, Sorafenib 1.20 μM, Pt.011 and Pt.012), the “decrease in viability of primary liver cancer cells” value was “approximately 20%”.

As a reminder, the viability is a read-out of living cells in per cent, often relative to untreated cells. Read a high viability as better survival.

The values are drawn from patent US20260240915A1, “USE OF EXTRACELLULAR VESICLES FOR THE TREATMENT OF CANCER” (HENRY FORD HEALTH SYSTEM, priority 2023, published 2026).
